Source: paper PMC11252457 (Acta Pharmaceutica Sinica. B, 2024)

Tests used:
[1] = system: HIV-1 RES056 (K103N/Y181C); assay: microbe, parasite or virus in culture; type: cell-based; conditions: for EC50: Human immunodeficiency virus 1, MT4, read-out: EC50 RES056; for SI RES056: ratio of CC50/EC50, RES056
[2] = target: recombinant WT HIV-1 RT (Human immunodeficiency virus type 1 group M subtype B, UniProt P03366); assay: HIV-1 RT inhibition assay; type: biochemical
[3] = system: HIV-1 double mutant strain F227L/V106A; assay: microbe, parasite or virus in culture; type: cell-based; conditions: Human immunodeficiency virus 1, MT4, read-out: EC50 F227L/V106A
[4] = system: HIV-1 mutant strain K103N; assay: microbe, parasite or virus in culture; type: cell-based; conditions: Human immunodeficiency virus 1, MT4, read-out: EC50 K103N
[5] = system: WT HIV-1 (IIIB); assay: microbe, parasite or virus in culture; type: cell-based; conditions: for EC50: Human immunodeficiency virus 1, IIIB, MT4, read-out: EC50 IIIB; for SI IIIB: ratio of CC50/EC50, IIIB
[6] = system: HIV-1 mutant strain Y188L; assay: microbe, parasite or virus in culture; type: cell-based; conditions: Human immunodeficiency virus 1, MT4, read-out: EC50 Y188L
[7] = system: HIV-1 mutant strain E138K; assay: microbe, parasite or virus in culture; type: cell-based; conditions: Human immunodeficiency virus 1, MT4, read-out: EC50 E138K
[8] = Cytotoxicity in mock-infected MT-4 cells; conditions: human
[9] = system: HIV-1 mutant strain L100I; assay: microbe, parasite or virus in culture; type: cell-based; conditions: Human immunodeficiency virus 1, MT4, read-out: EC50 L100I
[10] = system: HIV-1 mutant strain Y181C; assay: microbe, parasite or virus in culture; type: cell-based; conditions: Human immunodeficiency virus 1, MT4, read-out: EC50 Y181C

| SMILES | EC50 [1] [nM] | SI RES056 [1] | IC50 [2] [nM] | EC50 [3] [nM] | EC50 [4] [nM] | EC50 [5] [nM] | SI IIIB [5] | EC50 [6] [nM] | EC50 [7] [nM] | CC50 at 5 days [8] [nM] | EC50 [9] [nM] | EC50 [10] [nM] |
| --- | --- | --- | --- | --- | --- | --- | --- | --- | --- | --- | --- | --- |
| Cc1cc(C#N)cc(C)c1Oc1nc(NC2CCN(Cc3ccc(P(C)(C)=O)cc3)CC2)nc2ccsc12 [9a, 4-((2-((1-(4-(Dimethylphosphoryl)benzyl)piperidin-4-yl)amino)thieno[3,2-d]pyrimidin-4-yl)oxy)-3,5-dimethylbenzonitrile] | 257 ± 95.2 | 837 | 310 ± 10 | 21.5 ± 13.5 | 2.66 ± 0.85 | 2.2 ± 0.33 | 97,727 | 11.3 ± 0.87 | 7.33 ± 1.36 | 215000 ± 1170 | 7.01 ± 1.76 | 12.8 ± 2.62 |
| COP(=O)(OC)c1ccc(CN2CCC(Nc3nc(Oc4c(C)cc(C#N)cc4C)c4sccc4n3)CC2)cc1 [9b, Dimethyl (4-((4-((4-(4-cyano-2,6-dimethylphenoxy)thieno[3,2-d]pyrimidin-2-yl)amino)piperidin-1-yl)methyl)phenyl)phosphonate] | 193 ± 40.4 | 282 | 350 ± 50 | 8.14 ± 1.85 | 3.72 ± 1.27 | 3.63 ± 1.15 | 15,014 | 9.95 ± 5.61 | 14.9 ± 8.6 | 54500 ± 1290 | 10.8 ± 3.42 | 15.3 ± 10.1 |
| CCOP(=O)(OCC)c1ccc(CN2CCC(Nc3nc(Oc4c(C)cc(C#N)cc4C)c4sccc4n3)CC2)cc1 [9c, Diethyl (4-((4-((4-(4-cyano-2,6-dimethylphenoxy)thieno[3,2-d]pyrimidin-2-yl)amino)piperidin-1-yl)methyl)phenyl)phosphonate] | 445 ± 109 | 263 | 760 ± 150 | 14.3 ± 4.55 | ≤ 4.62 | 6.9 ± 1.92 | 16,957 | 17 ± 11 | 12.3 ± 1.98 | 117000 ± 7750 | 11.5 ± 3.27 | 13.2 ± 5.6 |
| COP(=O)(OC)c1ccc(CN2CCC(Nc3nc(Oc4c(C)cc(/C=C/C#N)cc4C)c4sccc4n3)CC2)cc1 [15b, Dimethyl (E)-(4-((4-((4-(4-(2-cyanovinyl)-2,6-dimethylphenoxy)thieno[3,2-d]pyrimidin-2-yl)amino)piperidin-1-yl)methyl)phenyl)phosphonate] | 603 ± 139 | 58 |  | 129 ± 83.3 | 13 ± 3.8 | 19.1 ± 13.9 | 1827 | 478 ± 158 | 64.5 ± 31.7 | 34900 ± 2860 | 85.7 ± 28 | 193 ± 74.8 |
| CCOP(=O)(OCC)c1ccc(CN2CCC(Nc3nc(Oc4c(C)cc(/C=C/C#N)cc4C)c4sccc4n3)CC2)cc1 [15c, Diethyl (E)-(4-((4-((4-(4-(2-cyanovinyl)-2,6-dimethylphenoxy)thieno[3,2-d]pyrimidin-2-yl)amino)piperidin-1-yl)methyl)phenyl)phosphonate] | 110 ± 27.2 | 74 |  | 27.1 ± 10.7 | 15.5 ± 1.21 | 26.4 ± 15.1 | 309 | 62.4 ± 22.7 | 56.6 ± 19.1 | 8150 ± 640 | 20.1 ± 10.8 | 44.1 ± 25.6 |
| CCCCOP(=O)(OCCCC)c1ccc(CN2CCC(Nc3nc(Oc4c(C)cc(/C=C/C#N)cc4C)c4sccc4n3)CC2)cc1 [15d, Dibutyl (E)-(4-((4-((4-(4-(2-cyanovinyl)-2,6-dimethylphenoxy)thieno[3,2-d]pyrimidin-2-yl)amino)piperidin-1-yl)methyl)phenyl)phosphonate] | 1430 ± 173 | 9 |  | 495 ± 168 | 188 ± 17 | 173 ± 54 | 71 | 714 ± 157 | 678 ± 196 | 12200 ± 3910 | 265 ± 84.4 | 779 ± 316 |
| Cc1cc(/C=C/C#N)cc(C)c1Oc1nc(NC2CCN(Cc3ccc(P(=O)(OCC(F)(F)F)OCC(F)(F)F)cc3)CC2)nc2ccsc12 [15e, Bis(2,2,2-trifluoroethyl) (E)-(4-((4-((4-(4-(2-cyanovinyl)-2,6-dimethylphenoxy)thieno[3,2-d]pyrimidin-2-yl)amino)piperidin-1-yl)methyl)phenyl)phosphonate] | 747 ± 242 | 21 |  | 338 ± 37.1 | 139 ± 65.7 | 138 ± 55.8 | 113 | 497 ± 49.2 | 423 ± 149 | 15600 ± 2670 | 140 ± 50.5 | 584 ± 272 |
| Cc1cc(/C=C/C#N)cc(C)c1Oc1nc(NC2CCN(Cc3ccc(P(=O)(OC(C)C)OC(C)C)cc3)CC2)nc2ccsc12 [15f, Diisopropyl (E)-(4-((4-((4-(4-(2-cyanovinyl)-2,6-dimethylphenoxy)thieno[3,2-d]pyrimidin-2-yl)amino)piperidin-1-yl)methyl)phenyl)phosphonate] | 401 ± 321 | 11 |  | 79.3 ± 13 | 41 ± 7.63 | 29.2 ± 9.12 | 152 | 195 ± 32.3 | 162 ± 35.8 | 4450 ± 570 | 56.1 ± 13.2 | 156 ± 59 |
| Cc1cc(/C=C/C#N)cc(C)c1Oc1nc(NC2CCN(Cc3ccc(P(=O)(OC(C)(C)C)OC(C)(C)C)cc3)CC2)nc2ccsc12 [15g, Di-tert-butyl (E)-(4-((4-((4-(4-(2-cyanovinyl)-2,6-dimethylphenoxy)thieno[3,2-d]pyrimidin-2-yl)amino)piperidin-1-yl)methyl)phenyl)phosphonate] | 197 ± 30.5 | 38 |  | 43.7 ± 7.52 | 16.9 ± 7.68 | 20.6 ± 8.31 | 359 | 55.3 ± 22.2 | 59.7 ± 13.1 | 7400 ± 2250 | 25.8 ± 15.8 | 46.4 ± 7.56 |
| Cc1cc(/C=C/C#N)cc(C)c1Oc1nc(NC2CCN(Cc3ccc(P(=O)(OCC(C)C)OCC(C)C)cc3)CC2)nc2ccsc12 [15h, Diisobutyl (E)-(4-((4-((4-(4-(2-cyanovinyl)-2,6-dimethylphenoxy)thieno[3,2-d]pyrimidin-2-yl)amino)piperidin-1-yl)methyl)phenyl)phosphonate] | 2200 ± 360 | 8 |  | 886 ± 167 | 239 ± 27 | 151 ± 48.4 | 109 | 860 ± 218 | 758 ± 249 | 16500 ± 2050 | 712 ± 158 | 1120 ± 106 |
| Cc1cc(C#N)cc(C)c1Oc1nc(NC2CCN(Cc3ccc(P(=O)(O)O)cc3)CC2)nc2ccsc12 [compound 10, (4-((4-((4-(4-Cyano-2,6-dimethylphenoxy)thieno[3,2-d]pyrimidin-2-yl)amino)piperidin-1-yl)methyl)phenyl)phosphonic acid] | > 227000 | <1 |  | > 227000 | 147000 | 16500 | >14 | > 227000 | 160000 | > 227000 | > 227000 | > 227000 |
| Cc1cc(/C=C/C#N)cc(C)c1Oc1nc(NC2CCN(Cc3ccc(P(=O)(O)O)cc3)CC2)nc2ccsc12 [compound 16, (E)-(4-((4-((4-(4-(2-Cyanovinyl)-2,6-dimethylphenoxy)thieno[3,2-d]pyrimidin-2-yl)amino)piperidin-1-yl)methyl)phenyl)phosphonic acid] | 170000 | >1 |  | 43500 | 6270 ± 1900 | 3810 ± 1520 | >57 | 133000 | 19100 | > 217000 | 13600 | 30400 |
